Values after ≈ are worked out from the molar mass of the structure shown. Where a SMILES comes first, the peptide text is derived from it.
How the values were obtained:
Assay type in all cases: cell-based
[1] = test system: Pseudomonas syringae pv. tabaci NCPPB 1237; assay: Minimal inhibitory concentration in liquid culture; conditions: 200 μl rich medium, 10^4 log-phase bacteria
[2] = test system: Pseudomonas solanacearum ATCC 11696; design: key: --: "-" means that no inhibition has been found; conditions: * synthetic ApidIa and heattreated immune lymph instead of Bee6 and native immune lymph
[3] = test system: Citrobacter freundii ATCC 8090; assay: Minimal inhibitory concentration in liquid culture; conditions: 200 μl rich medium, 10^4 log-phase bacteria
[4] = test system: Xanthomonas campestris pv. campestris A 902; assay: Minimal inhibitory concentration in liquid culture; conditions: 200 μl rich medium, 10^4 log-phase bacteria, + = no inhibition at maximal value
[5] = test system: Yersinia enterocolitica PGS C-1106; assay: Inhibition zone assay; conditions: * synthetic ApidIa and heattreated immune lymph instead of Bee6 and native immune lymph
[6] = test system: protoplasts derived from Lactobacillus sp; assay: Protoplast regeneration, agar diffusion assay; conditions: Lactobacillus protoplasts on RM MRS medium, 4 μg/well
Experimental: Protoplasts were made using lysozyme concentrations ranging between 0 and 5 mg/ml and then incubated for 1 hour in the presence of Apid Ia (concentrations ranging between 0-10 μg/ml) . Cells were pelleted, resuspended and plated out on RM MRS. To estimate the ratio of protoplasts/normal cells, controls were plated out on MRS without the stabilizing sucrose. This prevented the regenerating of the protoplasts and enabled the deduction of the number of normal cells. To evaluate the regeneration capability of the said protoplasts in the presence of Apid Ia an agar diffusion assay was performed : the protoplasts were applied on RM MRS medium, wells were made and filled up with an apidaecin solution (4 μg/well).

[7] = test system: Pseudomonas syringae pv. tabaci NCPPB 1237; assay: Inhibition zone assay; conditions: * synthetic ApidIa and heattreated immune lymph instead of Bee6 and native immune lymph
[8] = test system: Erwinia carotovora var atroseptica LMG 2385; assay: Minimal inhibitory concentration in liquid culture; conditions: 200 μl rich medium, 10^4 log-phase bacteria
[9] = test system: Erwinia salicis NCPPB 2530; assay: Minimal inhibitory concentration in liquid culture; conditions: 200 μl rich medium, 10^4 log-phase bacteria
[10] = test system: Pseudomonas syringae pv. maculicola NCPPB 1776; assay: Minimal inhibitory concentration in liquid culture; conditions: 200 μl rich medium, 10^4 log-phase bacteria
[11] = test system: Pseudomonas syringae pv. tomato NCPPB 1106; assay: Minimal inhibitory concentration in liquid culture; conditions: 200 μl rich medium, 10^4 log-phase bacteria
E. coli NCTC 9001 [12] = assay: Bactericidal activity, method not stated; conditions: lyophilized apidaecins resuspended in PBS
[13] = test system: Agrobactierium tumefaciens DSM 3129; assay: Minimal inhibitory concentration in liquid culture; conditions: 200 μl rich medium, 10^4 log-phase bacteria
[14] = test system: Xanthomonas campestris pv. campestris A 902; assay: Inhibition zone assay; design: key: --: "-" means that no inhibition has been found; conditions: * synthetic ApidIa and heattreated immune lymph instead of Bee6 and native immune lymph
Salmonella Newport CD 94 = assay: Minimal inhibitory concentration in liquid culture; conditions: 200 μl rich medium, 10^4 log-phase bacteria
[15] = test system: Rhizobium meliloti ZB 314; assay: Minimal inhibitory concentration in liquid culture; conditions: 200 μl rich medium, 10^4 log-phase bacteria
[16] = test system: Escherichia coli NCTC 9001; assay: Minimal inhibitory concentration in liquid culture; conditions: 200 μl rich medium, 10^4 log-phase bacteria
[17] = test system: Pseudomonas syringae pv. maculicola NCPPB 1776; assay: Inhibition zone assay; conditions: * synthetic ApidIa and heattreated immune lymph instead of Bee6 and native immune lymph
[18] = test system: Erwinia carotovora var carotovora NCPPB 312; assay: Minimal inhibitory concentration in liquid culture; conditions: 200 μl rich medium, 10^4 log-phase bacteria
E. coli NCTC 9001 [19] = conditions: E. coli NCTC 9001; 4 μg/well
Experimental: Whole lymph or purified components, resuspended in PBS to a final volume equal to the starting material (heated lymph), was applied in 3 mm wells on agar plates seeded with the test organisms. Antibacterial activity was determined by measuring the growth-inhibition zones (in mm).
Test conditions: agar inhibition zone obtained with 10 namomole apidaecin, resuspended in 20 μl H2 O/well.

[20] = test system: Bacillus megaterium QB 1551; assay: Minimal inhibitory concentration in liquid culture; conditions: 200 μl rich medium, 10^4 log-phase bacteria, + = no inhibition at maximal value
[21] = test system: Corynebacterium insidiosum NCPPB 1109; assay: Minimal inhibitory concentration in liquid culture; conditions: 200 μl rich medium, 10^4 log-phase bacteria
Experimental: (§1) In addition the exact concentration was determined precisely by amino-acid analysis and an equal sample of natural Bee 6b was prepared, allowing to compare the bactericidal activity of both natural and synthetic apidaecins by means of growth inhibition assays in liquid cultures (see mat & Meth.). The minimal inhibitory concentrations (μg/ml) were determined in liquid culture : 200 μl of a rich medium (trypticase soy broth or nutrient broth) was inoculated with 10^4 log-phase bacteria. Peptide concentrations ranged between 0 and 200 μg/ml. The values express μg/ml; when no inhibition was noticed the maximal values are given (+200 μg/ml or +50 μg/ml). All peptides were chemically synthesized, except for bee 6b which is purified from bee lymph.

[22] = test system: Corynebacterium michiganense pv. michiganense NCPPB 1573; assay: Minimal inhibitory concentration in liquid culture; conditions: 200 μl rich medium, 10^4 log-phase bacteria, + = no inhibition at maximal value
Experimental: as §1

Shigella flexneri CP 87 = assay: Minimal inhibitory concentration in liquid culture; conditions: 200 μl rich medium, 10^4 log-phase bacteria
Experimental: as §1

[23] = test system: Xanthomonas campestris pv. vesicatoria LMG 905; assay: Minimal inhibitory concentration in liquid culture; conditions: 200 μl rich medium, 10^4 log-phase bacteria, + = no inhibition at maximal value
Experimental: as §1

[24] = test system: Pseudomonas solanacearum ATCC 11696; conditions: 200 μl rich medium, 10^4 log-phase bacteria
[25] = test system: Salmonella typhimurium ATCC 23565; assay: Minimal inhibitory concentration in liquid culture; conditions: 200 μl rich medium, 10^4 log-phase bacteria
[26] = test system: Pseudomonas syringae pv. tomato NCPPB 1106; assay: Inhibition zone assay; conditions: * synthetic ApidIa and heattreated immune lymph instead of Bee6 and native immune lymph

Structure (SMILES): CC[C@H](C)[C@H](NC(=O)[C@H](CCCNC(=N)N)NC(=O)[C@@H]1CCCN1C(=O)[C@H](Cc1c[nH]cn1)NC(=O)[C@@H]1CCCN1C(=O)[C@@H]1CCCN1C(=O)[C@H](CCCNC(=N)N)NC(=O)[C@@H]1CCCN1C(=O)[C@H](CCC(N)=O)NC(=O)[C@@H]1CCCN1C(=O)[C@@H](NC(=O)[C@H](Cc1ccc(O)cc1)NC(=O)[C@@H](NC(=O)[C@@H]1CCCN1C(=O)[C@H](CCCNC(=N)N)NC(=O)[C@H](CC(N)=O)NC(=O)[C@H](CC(N)=O)NC(=O)CN)C(C)C)[C@@H](C)CC)C(=O)O [Apid Ia] (H-GNNRPVYIPQPRPPHPRI-OH)
- minimal inhibitory concentration [1]: 0.5 µg/mL (≈ 0.237 µM)
- diameter of growth-inhibition zone [2]: --
- minimal inhibitory concentration [3]: 0.15 µg/mL (≈ 0.0711 µM)
- minimal inhibitory concentration [4]: > 50 µg/mL
- diameter of growth-inhibition zone [5]: 9 mm
- inhibition zone, regeneration of protoplasts [6]: No inhibition zone was noticed
- diameter of growth-inhibition zone [7]: 7 mm
- minimal inhibitory concentration [8]: 1 µg/mL (≈ 0.474 µM)
- minimal inhibitory concentration [9]: 0.02 µg/mL (≈ 0.00949 µM)
- minimal inhibitory concentration [10]: 0.5 µg/mL (≈ 0.237 µM)
- minimal inhibitory concentration [11]: 0.2 µg/mL (≈ 0.0949 µM)
- bactericidal activity (E. coli NCTC 9001 [12]): possessed a bactericidal activity
- minimal inhibitory concentration [13]: 0.2 µg/mL (≈ 0.0949 µM)
- diameter of growth-inhibition zone [14]: --
- minimal inhibitory concentration (Salmonella Newport CD 94): 0.2 µg/mL (≈ 0.0949 µM)
- minimal inhibitory concentration [15]: 0.1 µg/mL (≈ 0.0474 µM)
- minimal inhibitory concentration [16]: 0.1 µg/mL (≈ 0.0474 µM)
- diameter of growth-inhibition zone [17]: 8 mm
- minimal inhibitory concentration [18]: 1 µg/mL (≈ 0.474 µM)
- inhibition zone, positive control of the protoplast test (E. coli NCTC 9001 [19]): clear inhibition zone
- minimal inhibitory concentration [20]: 150 µg/mL
- minimal inhibitory concentration [21]: 50 µg/mL (≈ 23.7 µM)
- minimal inhibitory concentration [22]: > 50 µg/mL
- minimal inhibitory concentration (Shigella flexneri CP 87): 0.1 µg/mL (≈ 0.0474 µM)
- minimal inhibitory concentration [23]: > 50 µg/mL
- minimal inhibitory concentration [24]: 25 µg/mL (≈ 11.9 µM)
- minimal inhibitory concentration [25]: 0.1 µg/mL (≈ 0.0474 µM)
- diameter of growth-inhibition zone [26]: 9 mm

From US5300629A, “Bactericidal and/or bacteriostatic peptides isolated from hemolymph of honeybees” (Plant Genetic Systems, N.V., priority 1987, dated 1994)
